Results from ChEMBL document CHEMBL5532655, “Discovery of (R)-4-(8-methoxy-2-methyl-1-(1-phenylethy)-1H-imidazo[4,5-c]quinnolin-7-yl)-3,5-dimethylisoxazole as a potent and selective BET inhibitor for treatment of acute myeloid leukemia (AML) guided by FEP calculation” (Eur J Med Chem, 2024).

Assays:
[1] = target: Bromodomain testis-specific protein (Homo sapiens) (UniProt Q58F21); assay: Binding affinity to BRDT BD1 (unknown origin) using biotinylated histone peptide H4 as substrate at 1 uM incubated for 2 hrs by AlphaScreen assay relative to control
[2] = target: Histone acetyltransferase p300 (Homo sapiens) (UniProt Q09472); assay: Binding affinity to EP300 (unknown origin) using biotinylated histone peptide H4 as substrate at 1 uM incubated for 2 hrs by AlphaScreen assay relative to control
Peregrin (Homo sapiens) = target: T1, Peregrin (Homo sapiens) (UniProt P55201); assay: Binding affinity to BRPF1 (unknown origin) using biotinylated histone peptide H4 as substrate at 1 uM incubated for 2 hrs by AlphaScreen assay relative to control
T1 sequence (whole entry): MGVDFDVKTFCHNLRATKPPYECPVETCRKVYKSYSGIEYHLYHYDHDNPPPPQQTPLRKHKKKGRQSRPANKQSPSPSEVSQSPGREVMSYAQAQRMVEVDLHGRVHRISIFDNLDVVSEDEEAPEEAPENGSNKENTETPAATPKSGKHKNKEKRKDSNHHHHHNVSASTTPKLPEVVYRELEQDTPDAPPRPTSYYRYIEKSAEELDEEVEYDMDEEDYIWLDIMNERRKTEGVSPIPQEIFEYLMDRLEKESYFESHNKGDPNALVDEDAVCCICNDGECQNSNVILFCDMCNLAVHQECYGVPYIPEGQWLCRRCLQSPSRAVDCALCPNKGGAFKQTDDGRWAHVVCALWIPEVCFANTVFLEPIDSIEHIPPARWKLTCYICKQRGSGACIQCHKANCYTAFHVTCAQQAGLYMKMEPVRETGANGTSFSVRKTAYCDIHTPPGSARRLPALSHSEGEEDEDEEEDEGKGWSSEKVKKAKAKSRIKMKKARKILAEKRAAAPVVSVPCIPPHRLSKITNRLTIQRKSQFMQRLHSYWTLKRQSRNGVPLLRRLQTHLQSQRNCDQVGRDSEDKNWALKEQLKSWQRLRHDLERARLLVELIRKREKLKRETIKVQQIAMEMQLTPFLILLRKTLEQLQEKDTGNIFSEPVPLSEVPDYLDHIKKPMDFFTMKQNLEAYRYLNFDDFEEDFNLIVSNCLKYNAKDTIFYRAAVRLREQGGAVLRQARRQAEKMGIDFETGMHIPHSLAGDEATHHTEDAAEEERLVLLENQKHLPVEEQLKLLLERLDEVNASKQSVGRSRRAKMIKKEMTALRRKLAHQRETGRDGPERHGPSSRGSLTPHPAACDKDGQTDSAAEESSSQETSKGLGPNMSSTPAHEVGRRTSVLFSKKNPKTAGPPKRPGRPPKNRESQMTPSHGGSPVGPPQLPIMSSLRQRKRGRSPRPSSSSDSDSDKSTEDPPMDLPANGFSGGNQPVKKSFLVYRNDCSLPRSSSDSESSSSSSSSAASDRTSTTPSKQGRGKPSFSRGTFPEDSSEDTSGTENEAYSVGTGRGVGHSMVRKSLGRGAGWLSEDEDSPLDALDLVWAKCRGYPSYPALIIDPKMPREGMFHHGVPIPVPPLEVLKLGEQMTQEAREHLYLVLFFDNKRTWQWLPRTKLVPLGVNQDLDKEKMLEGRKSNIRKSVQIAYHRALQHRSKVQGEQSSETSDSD

[3] = target: T2, Transcription intermediary factor 1-alpha (Homo sapiens) (UniProt O15164); assay: Binding affinity to TRIM24 (unknown origin) using biotinylated histone peptide H4 as substrate at 1 uM incubated for 2 hrs by AlphaScreen assay relative to control
T2 sequence (whole entry): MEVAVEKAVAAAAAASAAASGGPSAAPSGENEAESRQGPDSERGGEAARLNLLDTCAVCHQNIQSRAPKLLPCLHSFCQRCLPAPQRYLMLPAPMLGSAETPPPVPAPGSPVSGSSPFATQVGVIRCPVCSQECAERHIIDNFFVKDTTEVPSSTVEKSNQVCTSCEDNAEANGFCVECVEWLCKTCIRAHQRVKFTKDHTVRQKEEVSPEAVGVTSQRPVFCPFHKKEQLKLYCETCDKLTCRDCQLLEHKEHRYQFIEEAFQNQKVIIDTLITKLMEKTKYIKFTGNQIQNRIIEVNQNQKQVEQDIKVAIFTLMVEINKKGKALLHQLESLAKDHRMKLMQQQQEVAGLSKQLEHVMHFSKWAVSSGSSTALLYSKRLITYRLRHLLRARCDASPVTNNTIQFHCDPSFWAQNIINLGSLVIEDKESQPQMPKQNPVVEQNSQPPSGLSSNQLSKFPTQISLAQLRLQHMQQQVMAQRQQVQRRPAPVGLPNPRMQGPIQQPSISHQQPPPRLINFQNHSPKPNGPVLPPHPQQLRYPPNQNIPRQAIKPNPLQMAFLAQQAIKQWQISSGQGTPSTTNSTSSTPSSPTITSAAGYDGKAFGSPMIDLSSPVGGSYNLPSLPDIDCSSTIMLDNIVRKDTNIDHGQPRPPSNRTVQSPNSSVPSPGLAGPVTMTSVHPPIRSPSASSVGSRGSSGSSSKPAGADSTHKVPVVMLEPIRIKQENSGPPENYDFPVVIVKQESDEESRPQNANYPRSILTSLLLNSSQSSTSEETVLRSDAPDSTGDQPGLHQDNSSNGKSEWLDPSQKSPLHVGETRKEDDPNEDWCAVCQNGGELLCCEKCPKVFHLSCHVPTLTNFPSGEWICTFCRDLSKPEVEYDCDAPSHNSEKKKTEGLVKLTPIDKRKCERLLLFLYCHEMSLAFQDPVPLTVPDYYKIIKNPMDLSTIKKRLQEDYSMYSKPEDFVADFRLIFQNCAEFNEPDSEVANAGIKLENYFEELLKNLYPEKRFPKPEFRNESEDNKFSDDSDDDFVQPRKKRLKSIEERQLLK

[4] = target: SWI/SNF-related matrix-associated actin-dependent regulator of chromatin subfamily A member 4 (Homo sapiens) (UniProt P51532); assay: Binding affinity to SMARCA4 (unknown origin) using biotinylated histone peptide H4 as substrate at 1 uM incubated for 2 hrs by AlphaScreen assay relative to control
[5] = target: Histone acetyltransferase p300 (Homo sapiens) (UniProt Q09472); conditions: time 30.0 min
[6] = target: Transcription initiation factor TFIID subunit 1 (Homo sapiens) (UniProt P21675); conditions: time 30.0 min
Homo sapiens = organism: Homo sapiens; conditions: time 30.0 min

Histone acetyltransferase p300 (Homo sapiens), sequence (Q09472 whole entry): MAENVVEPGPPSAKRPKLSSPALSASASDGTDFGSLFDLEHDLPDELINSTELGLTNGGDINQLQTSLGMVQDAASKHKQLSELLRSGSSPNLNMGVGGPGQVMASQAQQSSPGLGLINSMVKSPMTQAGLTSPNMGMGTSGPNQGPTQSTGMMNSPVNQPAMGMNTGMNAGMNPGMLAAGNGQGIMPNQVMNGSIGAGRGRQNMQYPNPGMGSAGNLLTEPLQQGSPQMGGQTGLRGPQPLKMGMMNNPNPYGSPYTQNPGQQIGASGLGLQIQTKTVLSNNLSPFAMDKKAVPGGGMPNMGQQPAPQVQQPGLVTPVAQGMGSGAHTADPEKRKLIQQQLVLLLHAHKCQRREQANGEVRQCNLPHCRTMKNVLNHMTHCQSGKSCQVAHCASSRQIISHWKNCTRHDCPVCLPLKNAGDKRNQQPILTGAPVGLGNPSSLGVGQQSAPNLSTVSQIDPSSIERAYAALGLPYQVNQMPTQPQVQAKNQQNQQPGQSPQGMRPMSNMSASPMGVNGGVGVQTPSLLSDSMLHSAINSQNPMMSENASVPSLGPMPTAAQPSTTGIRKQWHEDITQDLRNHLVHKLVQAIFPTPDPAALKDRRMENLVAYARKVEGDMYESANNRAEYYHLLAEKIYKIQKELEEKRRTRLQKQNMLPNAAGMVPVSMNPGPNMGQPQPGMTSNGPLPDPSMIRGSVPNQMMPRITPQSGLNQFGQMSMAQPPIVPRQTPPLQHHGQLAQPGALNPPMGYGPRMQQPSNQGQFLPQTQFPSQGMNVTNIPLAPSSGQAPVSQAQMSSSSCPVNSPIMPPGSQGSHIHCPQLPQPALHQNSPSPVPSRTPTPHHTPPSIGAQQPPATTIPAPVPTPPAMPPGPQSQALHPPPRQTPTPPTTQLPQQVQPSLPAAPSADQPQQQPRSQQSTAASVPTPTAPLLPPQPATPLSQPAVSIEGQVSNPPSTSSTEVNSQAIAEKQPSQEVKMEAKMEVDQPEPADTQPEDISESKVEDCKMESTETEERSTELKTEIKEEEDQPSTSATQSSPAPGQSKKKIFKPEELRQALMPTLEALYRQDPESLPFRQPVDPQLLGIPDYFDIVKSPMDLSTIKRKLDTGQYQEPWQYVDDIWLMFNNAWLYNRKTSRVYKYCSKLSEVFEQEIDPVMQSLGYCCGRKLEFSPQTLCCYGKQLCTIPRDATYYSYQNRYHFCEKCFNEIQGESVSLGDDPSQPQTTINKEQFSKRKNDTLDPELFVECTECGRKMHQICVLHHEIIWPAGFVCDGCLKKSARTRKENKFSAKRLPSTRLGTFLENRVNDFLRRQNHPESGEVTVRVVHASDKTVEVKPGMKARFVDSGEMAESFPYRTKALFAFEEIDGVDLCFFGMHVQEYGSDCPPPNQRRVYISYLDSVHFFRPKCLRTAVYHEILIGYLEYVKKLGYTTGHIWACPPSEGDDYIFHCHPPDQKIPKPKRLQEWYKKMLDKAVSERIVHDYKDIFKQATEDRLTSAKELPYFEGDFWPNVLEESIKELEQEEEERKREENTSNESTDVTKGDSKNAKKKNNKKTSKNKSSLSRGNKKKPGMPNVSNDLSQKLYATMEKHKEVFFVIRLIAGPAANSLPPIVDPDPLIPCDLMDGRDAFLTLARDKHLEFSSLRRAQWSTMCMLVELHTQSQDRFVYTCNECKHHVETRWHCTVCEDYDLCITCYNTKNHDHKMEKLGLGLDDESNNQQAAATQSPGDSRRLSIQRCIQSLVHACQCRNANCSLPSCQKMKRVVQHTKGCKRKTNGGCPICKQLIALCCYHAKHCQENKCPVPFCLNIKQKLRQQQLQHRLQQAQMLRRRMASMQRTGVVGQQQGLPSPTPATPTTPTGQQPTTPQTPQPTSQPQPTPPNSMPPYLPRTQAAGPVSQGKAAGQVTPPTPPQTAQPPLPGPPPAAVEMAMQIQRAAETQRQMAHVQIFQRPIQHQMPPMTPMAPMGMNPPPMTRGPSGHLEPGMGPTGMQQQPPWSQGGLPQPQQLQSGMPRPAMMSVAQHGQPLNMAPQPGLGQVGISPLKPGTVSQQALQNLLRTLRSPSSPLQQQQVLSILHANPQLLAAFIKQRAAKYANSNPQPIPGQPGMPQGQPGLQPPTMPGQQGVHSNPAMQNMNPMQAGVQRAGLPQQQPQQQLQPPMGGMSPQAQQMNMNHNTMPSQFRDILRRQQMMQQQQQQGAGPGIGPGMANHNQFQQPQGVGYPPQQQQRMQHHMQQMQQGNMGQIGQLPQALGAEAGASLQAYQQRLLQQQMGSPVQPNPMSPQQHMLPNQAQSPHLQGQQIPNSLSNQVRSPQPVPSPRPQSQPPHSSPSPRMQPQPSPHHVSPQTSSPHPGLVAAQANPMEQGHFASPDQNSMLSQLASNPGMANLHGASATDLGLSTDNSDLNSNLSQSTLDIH
SWI/SNF-related matrix-associated actin-dependent regulator of chromatin subfamily A member 4 (Homo sapiens), sequence (P51532 whole entry): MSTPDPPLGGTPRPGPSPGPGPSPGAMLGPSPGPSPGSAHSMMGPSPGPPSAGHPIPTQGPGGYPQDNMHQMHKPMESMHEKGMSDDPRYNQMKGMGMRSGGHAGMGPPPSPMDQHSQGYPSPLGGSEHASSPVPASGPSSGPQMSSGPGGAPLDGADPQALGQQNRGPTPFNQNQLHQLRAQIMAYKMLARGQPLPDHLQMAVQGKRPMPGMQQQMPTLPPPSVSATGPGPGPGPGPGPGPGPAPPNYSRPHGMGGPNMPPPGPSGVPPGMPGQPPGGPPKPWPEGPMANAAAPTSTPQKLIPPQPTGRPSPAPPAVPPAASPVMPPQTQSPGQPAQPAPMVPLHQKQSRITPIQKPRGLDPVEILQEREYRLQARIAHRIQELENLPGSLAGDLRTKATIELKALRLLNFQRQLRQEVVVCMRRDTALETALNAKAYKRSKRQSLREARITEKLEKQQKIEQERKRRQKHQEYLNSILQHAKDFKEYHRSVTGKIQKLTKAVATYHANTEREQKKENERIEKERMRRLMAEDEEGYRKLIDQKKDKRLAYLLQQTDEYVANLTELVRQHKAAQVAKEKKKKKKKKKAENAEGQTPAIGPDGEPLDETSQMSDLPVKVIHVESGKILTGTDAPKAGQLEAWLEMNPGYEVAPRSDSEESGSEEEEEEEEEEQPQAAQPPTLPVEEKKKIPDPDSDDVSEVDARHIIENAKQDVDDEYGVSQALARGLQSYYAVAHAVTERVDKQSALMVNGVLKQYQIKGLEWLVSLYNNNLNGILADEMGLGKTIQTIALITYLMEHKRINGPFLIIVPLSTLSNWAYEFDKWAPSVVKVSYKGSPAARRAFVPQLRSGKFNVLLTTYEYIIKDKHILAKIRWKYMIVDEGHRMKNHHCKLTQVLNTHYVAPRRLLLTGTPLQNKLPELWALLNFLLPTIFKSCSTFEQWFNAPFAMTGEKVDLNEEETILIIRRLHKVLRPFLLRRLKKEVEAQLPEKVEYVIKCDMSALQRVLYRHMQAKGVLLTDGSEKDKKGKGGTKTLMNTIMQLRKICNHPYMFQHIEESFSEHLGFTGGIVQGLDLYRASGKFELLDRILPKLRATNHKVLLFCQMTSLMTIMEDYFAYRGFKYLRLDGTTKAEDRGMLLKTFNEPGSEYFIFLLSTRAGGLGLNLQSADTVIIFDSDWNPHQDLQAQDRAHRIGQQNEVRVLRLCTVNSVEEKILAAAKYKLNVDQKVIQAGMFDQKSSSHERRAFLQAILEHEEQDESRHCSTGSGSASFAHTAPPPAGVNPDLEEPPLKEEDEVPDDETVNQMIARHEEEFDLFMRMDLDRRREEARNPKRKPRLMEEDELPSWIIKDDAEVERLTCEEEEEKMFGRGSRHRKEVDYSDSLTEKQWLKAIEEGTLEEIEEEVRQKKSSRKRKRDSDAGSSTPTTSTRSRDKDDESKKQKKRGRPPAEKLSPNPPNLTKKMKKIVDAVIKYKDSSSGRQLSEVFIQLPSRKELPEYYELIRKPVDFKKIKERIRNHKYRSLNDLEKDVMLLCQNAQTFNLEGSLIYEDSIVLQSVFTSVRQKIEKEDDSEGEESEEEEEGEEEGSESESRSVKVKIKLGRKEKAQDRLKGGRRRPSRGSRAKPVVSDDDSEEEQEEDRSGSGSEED

SMILES | Activity [1] | Activity [2] | Activity (Peregrin (Homo sapiens)) | Activity [3] | Activity [4] | ΔTm [5] | ΔTm [6] | ΔTm (Homo sapiens)
COc1cc2c(cc1-c1c(C)n[nH]c1C)ncc1nc(C)n([C@H](C)c3ccccc3)c12 | 50% | < 30% | < 30% | < 30% | < 30% | 0 °C | 0 °C | 0 °C
COc1cc2c(cc1-c1c(C)noc1C)ncc1nc(C)n([C@H](C)c3ccccc3)c12 | > 80% | > 80% | < 30% | < 30% | < 30% | 5 °C | 0 °C | 0 °C
